Results reported in paper PMC12248599, “Exploring the Bioavailability of Red Grape Skin Extract Polyphenols: A Caco-2 Cell Model Study” (Foods, 2025).
Values joined by “and” are separate entries in the source; they are usually repeats but may differ in a detail not shown here. Identical values can stand only once. Marks after values point to notes of the source that are not given here.

Experiments:
[1] = Caco-2 monolayer transport (bioavailability) study, AB and BA directions; type: in vitro ADME, Homo sapiens; conditions: human
In short: (§1)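 Grape skin extract in HBSS (15 or 22 mg/mL) applied to 21-day Caco-2 monolayers (TEER ≥300 Ω cm²) in AB and BA directions; acceptor samples quantified per polyphenol by HPLC-UV. Papp from steady-state flux over 1.12 cm², efflux ratio as Papp(BA)/Papp(AB), plus transport efficiency (C/C0).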

Caco-2 cell monolayer = experiment: as above; type: in vitro ADME, Homo sapiens; conditions: for reduction in concentration on the apical (donor) side: 0 to 180 min; for TE (%) transport efficiency: after 180 min
In short: as §1

[2] = AB experiment, S1 (15 mg/mL GSE)
[3] = AB experiment, S2 (22 mg/mL GSE)
[4] = AB experiment, acceptor side, S1 (15 mg/mL GSE)
[5] = AB experiment, acceptor side, S2 (22 mg/mL GSE)
[6] = AB experiment, donor side, S1 (15 mg/mL GSE)
[7] = AB experiment, donor side, S2 (22 mg/mL GSE)
[8] = BA experiment, acceptor side, S1 (15 mg/mL GSE)
[9] = BA experiment, acceptor side, S2 (22 mg/mL GSE)
[10] = BA experiment, donor side, S1 (15 mg/mL GSE)
[11] = BA experiment, donor side, S2 (22 mg/mL GSE)

O=c1c(O[C@@H]2O[C@H](CO)[C@@H](O)[C@H](O)[C@H]2O)c(-c2ccc(O)cc2)oc2cc(O)cc(O)c12 [K3G, kaempferol-3-glucoside]
efflux ratio at 180 min, 15 mg/mL ([1]; Caco-2, Papp (BA)/Papp (AB), S1 (15 mg/mL GSE), read-out: ER (efflux ratio)): 1.1
efflux ratio at 180 min, 22 mg/mL ([1]; Caco-2, Papp (BA)/Papp (AB), S2 (22 mg/mL GSE), read-out: ER (efflux ratio)): 1.3
efflux ratio at 180 min ([1]; Caco-2, text statement, S1 and S2): > 1
Papp A→B at 180 min, 15 mg/mL ([1]; Caco-2, apical to basolateral, S1 (15 mg/mL GSE)): 1160 ± 20 ×10⁻⁶ cm/s
Papp A→B at 180 min, 22 mg/mL ([1]; Caco-2, apical to basolateral, S2 (22 mg/mL GSE)): 730 ± 40 ×10⁻⁶ cm/s
Papp B→A at 180 min, 15 mg/mL ([1]; Caco-2, basolateral to apical, S1 (15 mg/mL GSE)): 1230 ± 30 ×10⁻⁶ cm/s
Papp B→A at 180 min, 22 mg/mL ([1]; Caco-2, basolateral to apical, S2 (22 mg/mL GSE)): 970 ± 30 ×10⁻⁶ cm/s
reduction in concentration on the apical (donor) side (Caco-2 cell monolayer; [2]): 33.6 ± 0.5%
TE (%) transport efficiency (Caco-2 cell monolayer; [2]): 97 ± 2%
reduction in concentration on the apical (donor) side (Caco-2 cell monolayer; [3]): 28.7 ± 0.9%
TE (%) transport efficiency (Caco-2 cell monolayer; [3]): 60 ± 1% and 60.2 ± 0.9%
Basolateral Side 75 min (Caco-2 cell monolayer; [4]): 6.2 ± 0.1 ^b mg/L
Basolateral Side 90 min (Caco-2 cell monolayer; [4]): 6.7 ± 0.1 ^c mg/L
Basolateral Side 115 min (Caco-2 cell monolayer; [4]): 7.1 ± 0.1 ^c mg/L
Basolateral Side 180 min (Caco-2 cell monolayer; [4]): 7.4 ± 0.1 ^c mg/L
Basolateral Side 75 min (Caco-2 cell monolayer; [5]): 6.4 ± 0.1 ^b mg/L
Basolateral Side 90 min (Caco-2 cell monolayer; [5]): 6.8 ± 0.2 ^c mg/L
Basolateral Side 115 min (Caco-2 cell monolayer; [5]): 7.2 ± 0.2 ^d,c mg/L
Basolateral Side 180 min (Caco-2 cell monolayer; [5]): 7.6 ± 0.2 ^c mg/L
Apical Side 0 min (Caco-2 cell monolayer; [6]): 7.7 ± 0.3 mg/L and 7.7 ± 0.3 ^a mg/L
Apical Side 75 min (Caco-2 cell monolayer; [6]): 7.1 ± 0.2 ^b mg/L
Apical Side 90 min (Caco-2 cell monolayer; [6]): 6.7 ± 0.2 ^b,c mg/L
Apical Side 115 min (Caco-2 cell monolayer; [6]): 6.4 ± 0.2 ^c mg/L
Apical Side 180 min (Caco-2 cell monolayer; [6]): 5.0 ± 0.2 mg/L and 5.1 ± 0.2 ^d mg/L
Apical Side 0 min (Caco-2 cell monolayer; [7]): 12.7 ± 0.3 mg/L and 12.7 ± 0.3 ^a mg/L
Apical Side 75 min (Caco-2 cell monolayer; [7]): 11.8 ± 0.3 ^b mg/L
Apical Side 90 min (Caco-2 cell monolayer; [7]): 11.3 ± 0.3 ^b,c mg/L
Apical Side 115 min (Caco-2 cell monolayer; [7]): 10.6 ± 0.23 ^c mg/L
Apical Side 180 min (Caco-2 cell monolayer; [7]): 9.0 ± 0.2 mg/L and 9.0 ± 0.2 ^d mg/L
detection at the acceptor side (Caco-2 cell monolayer; AB experiments, basolateral side): detected
TE (%) transport efficiency (Caco-2 cell monolayer; BA experiment, S1 (15 mg/mL GSE)): 130 ± 3%
TE (%) transport efficiency (Caco-2 cell monolayer; BA experiment, S2 (22 mg/mL GSE)): 109.0 ± 0.9%
Apical Side 75 min (Caco-2 cell monolayer; [8]): 6.1 ± 0.3 ^b mg/L
Apical Side 90 min (Caco-2 cell monolayer; [8]): 7.4 ± 0.3 ^c mg/L
Apical Side 115 min (Caco-2 cell monolayer; [8]): 8.7 ± 0.4 ^d mg/L
Apical Side 180 min (Caco-2 cell monolayer; [8]): 9.9 ± 0.4 ^c mg/L
Apical Side 75 min (Caco-2 cell monolayer; [9]): 6.8 ± 0.2 ^a,b mg/L
Apical Side 90 min (Caco-2 cell monolayer; [9]): 8.1 ± 0.2 ^b,c mg/L
Apical Side 115 min (Caco-2 cell monolayer; [9]): 9.4 ± 0.3 ^c,d mg/L
Apical Side 180 min (Caco-2 cell monolayer; [9]): 10.6 ± 0.3 ^c mg/L
Basolateral Side 0 min (Caco-2 cell monolayer; [10]): 7.6 ± 0.2 ^a mg/L
Basolateral Side 75 min (Caco-2 cell monolayer; [10]): 7.2 ± 0.2 ^b mg/L
Basolateral Side 90 min (Caco-2 cell monolayer; [10]): 6.9 ± 0.2 ^c mg/L
Basolateral Side 115 min (Caco-2 cell monolayer; [10]): 6.6 ± 0.1 ^d mg/L
Basolateral Side 180 min (Caco-2 cell monolayer; [10]): 6.1 ± 0.1 ^c mg/L
Basolateral Side 0 min (Caco-2 cell monolayer; [11]): 9.8 ± 0.2 ^a mg/L
Basolateral Side 75 min (Caco-2 cell monolayer; [11]): 9.5 ± 0.2 ^b mg/L
Basolateral Side 90 min (Caco-2 cell monolayer; [11]): 9.3 ± 0.2 ^c mg/L
Basolateral Side 115 min (Caco-2 cell monolayer; [11]): 9.1 ± 0.2 ^d mg/L
Basolateral Side 180 min (Caco-2 cell monolayer; [11]): 8.5 ± 0.2 ^c mg/L
detection at the acceptor side (Caco-2 cell monolayer; BA experiments, apical side): detected
